Columns and labels:
[1] = system: MCF-7 cell line; assay: MTT cytotoxicity assay, MCF-7; format: cell-based, human; settings: for IC50: Homo sapiens, MCF7, MTT assay, mean ± SD of three experiments; for fold more potent than sunitinib, MCF-7: ratio of IC50 to sunitinib
Procedure: (§1) The cytotoxic activities against breast MCF-7 and liver HepG2 cancer cell lines for all the synthesized compounds 3a,b–17a,b were evaluated by MTT-based cytotoxicity assay. Sunitinib was selected as a reference standard in this study, and the results are presented as IC50 in Table 1.
(§2) The anticancer activities of the target compounds 3a,b–17a,b were quantitatively assessed using the MTT protocol against the MCF-7 and HepG2 cell lines, as described in the Supplementary Materials. […]
(§3) 4.2. Biological investigation
(§4) 4.2.1. In vitro cytotoxic activity assay
(§5) Citation: Abdelgawad, M.A.; Cell Line cells were obtained from the American Type Culture Collection. The cells Hayallah A.M.; Bukhari S.N.A.; were cultured using DMEM (Invitrogen/Life Technologies) supplemented with 10% FBS Musa A.; Elmowafy M.; (Hyclone,), 10 ug/ml of insulin (Sigma), and 1% penicillin‐streptomycin. All of the other Abdel‐Rahman, H.M.; chemicals and reagents were from Sigma or Invitrogen. Plate cells (cells density 1.2 – 1.8 Abd El‐Gaber, M.K. Design, × 10,000 cells/well) in a volume of 100μl complete growth medium + 100 μl of the tested Synthesis, Molecular Modeling, and compound per well in a 96‐well plate for 24 hours before the MTT assay. The tested com‐ Anticancer Evaluation of New pounds were dissolved in DMSO just before the test.
(§6) VEGFR‐2 Inhibitors Based on the Indolin‐2‐One Scaffold. 4.2.1.1. Cell culture protocol
(§7) Pharmaceuticals 2022, 15, x. The culture medium was removed to a centrifuge tube. The cell layer was briefly https://doi.org/10.3390/xxxxx rinsed with 5 mL of 0.25% (w/v) Trypsin and 3 mL of 0.53 mM EDTA solution to remove Academic Editor(s): Mary J. Meegan all traces of serum which contains Trypsin inhibitor. Next, 2.0 to 3.0 ml of Trypsin EDTA Received: 18 October 2022 solution was added to the flask and cells were observed under an inverted microscope Accepted: 9 November 2022 until the cell layer was dispersed (usually within 5 to 15 minutes). Then, 6.0 to 8.0 mL of Published: 14 November 2022 complete growth medium was added and cells aspirated by gently pipetting. The cell suspension was transferred to the centrifuge tube with the medium and cells from step 1, Publisher’s Note: MDPI stays neu‐and centrifuged at approximately 125 xg for 5 to 10 minutes. The supernatant was dis‐ tral with regard to jurisdictional carded and the cell pellet was suspended in fresh growth medium. Appropriate aliquots claims in published maps and institu‐ of the cell suspension were added to new culture vessels and incubated at 37°C for 24 hrs. tional affiliations. After treatment of cells with the serial concentrations of the compound to be tested, incu‐ bation was carried out for 48 h at 37 °C. The plates were examined under an inverted mi‐ croscope and proceeded for the MTT assay […]
(§8) Submitted for possible open access 4.2.1.2. […]
(§9) HepG‐2) were used in this test. At first, the cell lines were cultured in RPMI‐1640 medium Pharmaceuticals 2022, 15, x. https://doi.org/10.3390/xxxxx. www.mdpi.com/journal/pharmaceuticals […]
(§10) Pharmaceuticals 2022, 15, x FOR PEER REVIEW 2 of 22 with 10% fetal bovine serum. Antibiotics (100 units/ml penicillin and100 μg/ml strepto‐ mycin) were added at 37 °C in a 5% CO2 incubator. The cell lines were seeded in a 96‐well plate at a density of 1.0 x 10^4 cells / well at 37 °C for 48 h under 5% CO2. After incubation, the cells were treated with different concentrations of the synthesized compounds and incubated for 24 h. After 24 h of drug treatment, 20 μl of MTT solution (5mg/ml) was added and incubated for 4 h. 100 μl of dimethyl sulfoxide (DMSO) was added into each well to dissolve the formed purple formazan. The colored solution was measured and recorded at an absorbance of 570 nm using a plate reader (EXL 800, USA). The relative cell viability was calculated in percentage as (A570 of treated samples/A570 of untreated sam‐ ple) X 100. The half maximal inhibitory concentration (IC50) values were presented using […]

[2] = system: HepG2 cell line; assay: MTT cytotoxicity assay, HepG2; format: cell-based, human; settings: mean ± SD of three experiments
Procedure: as §1, §2, §3, §4, §5, §6, §7, §8, §9, §10

[3] = molecular target: VEGFR-2 (Homo sapiens, UniProt P35968); assay: In vitro VEGFR-2 kinase inhibitory assay (VEGFR2 (KDR) Kinase Assay Kit)
Chain of VEGFR-2 (P35968 20-1356): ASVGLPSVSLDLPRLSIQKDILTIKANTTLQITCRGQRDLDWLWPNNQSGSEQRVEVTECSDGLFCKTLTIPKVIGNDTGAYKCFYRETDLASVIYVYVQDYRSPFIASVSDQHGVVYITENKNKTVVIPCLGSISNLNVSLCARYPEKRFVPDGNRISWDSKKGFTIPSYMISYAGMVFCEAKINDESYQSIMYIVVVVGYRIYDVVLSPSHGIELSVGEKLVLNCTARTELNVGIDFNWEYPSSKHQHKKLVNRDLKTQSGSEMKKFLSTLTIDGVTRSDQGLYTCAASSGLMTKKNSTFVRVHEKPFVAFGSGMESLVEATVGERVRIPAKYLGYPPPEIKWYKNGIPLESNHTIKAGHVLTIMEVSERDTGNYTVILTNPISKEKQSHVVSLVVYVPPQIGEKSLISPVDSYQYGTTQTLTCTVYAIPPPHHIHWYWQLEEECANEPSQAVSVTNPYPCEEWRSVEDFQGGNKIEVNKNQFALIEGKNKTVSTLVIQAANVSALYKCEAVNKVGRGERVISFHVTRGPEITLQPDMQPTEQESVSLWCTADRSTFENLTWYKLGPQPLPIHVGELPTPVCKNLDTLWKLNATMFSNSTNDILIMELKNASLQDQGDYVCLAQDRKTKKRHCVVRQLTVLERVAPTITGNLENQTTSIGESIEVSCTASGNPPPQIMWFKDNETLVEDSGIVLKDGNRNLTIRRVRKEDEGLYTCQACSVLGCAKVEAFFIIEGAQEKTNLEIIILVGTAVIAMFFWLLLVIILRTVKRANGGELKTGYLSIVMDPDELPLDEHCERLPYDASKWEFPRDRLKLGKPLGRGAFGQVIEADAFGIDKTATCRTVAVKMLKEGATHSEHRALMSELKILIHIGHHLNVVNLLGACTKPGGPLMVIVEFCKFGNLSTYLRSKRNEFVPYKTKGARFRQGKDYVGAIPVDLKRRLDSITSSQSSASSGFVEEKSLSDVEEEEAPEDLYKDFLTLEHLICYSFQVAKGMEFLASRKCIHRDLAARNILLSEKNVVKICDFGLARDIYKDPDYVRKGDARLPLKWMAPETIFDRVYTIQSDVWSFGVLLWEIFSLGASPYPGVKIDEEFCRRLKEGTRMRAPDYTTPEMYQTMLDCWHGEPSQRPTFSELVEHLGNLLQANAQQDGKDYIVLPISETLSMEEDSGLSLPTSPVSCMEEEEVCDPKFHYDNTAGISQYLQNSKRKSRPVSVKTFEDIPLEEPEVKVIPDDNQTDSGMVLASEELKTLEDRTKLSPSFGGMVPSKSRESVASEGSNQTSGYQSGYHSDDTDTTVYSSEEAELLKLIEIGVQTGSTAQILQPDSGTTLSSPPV
Procedure: In vitro VEGFR‐2 kinase inhibitory assay
for their inhibitory activity against VEGFR‐2. Human BPS bioscience® VEGFR2 (KDR) Ki‐ nase Assay Kit (Enzyme‐Linked Immunosorbent Assay) was utilized in this test. The lu‐ minescent signal from the assay is correlated with the amount of ATP present and is in‐ versely correlated with the amount of kinase activity. The compounds were diluted to 100 μM in 10% DMSO and 5 ml of the diluted solution was added to a 50 ml reaction so that the final concentration of DMSO was 1% in all of reactions. All of the enzymatic reactions were conducted at 30 °C for 40 min. The 50 μl reaction mixture contains 40 μM Tris, pH 7.4, 10 μM MgCl2, 0.1 mg/ml BSA, 0.2 mg/ml Poly (Glu, Tyr) substrate, 10 μM ATP, and VEGFR‐2. After the enzymatic reaction, 50 ml of Kinase‐GloPlus Luminescence kinase as‐ say solution (Promega) was added to each reaction and the plate was incubated for 5 min at room temperature. Luminescence signal was measured using a BioTek Synergy 2 mi‐ croplate reader. The protein kinase assays used to determine IC50 values were performed using a ADP‐GloTM assay kit from Promega, which measures the generation of ADP by the protein kinase. Generation of ADP by the protein kinase reaction leads to an increase in luminescence signal in the presence of the ADP‐GloTM assay kit. The assay was started by incubating the reaction mixture in a 96‐well plate at 30 °C for 30 min. After the 30 mi n incubation period, the assay was terminated by the addition of 25 ml of ADP‐GloTM Re‐ agent (Promega). The 96‐well plate was shaken and then incubated for 40 min at ambient temperature; 50 ml of Kinase detection reagent was added, the 96‐well reaction plate wa s then read using the ADP‐Glo Luminescences Protocol on a GloMax plate reader (Promega: Catalog #E7031). The blank control was set up which included all the assay components, except the addition of appropriate substrates (replaced with equal volume of kinase assay buffer). The corrected activity for each protein kinase target was deter‐ mined by removing the blank control value. IC50 determination for inhibitor against VEGFR‐2 was estimated by generating a graph of log inhibitor vs normalized response with variables.

[4] = system: HepG2 cells; design: method as in PMID 29901131; settings: HepG2 liver cancer cells; cited from earlier work

| melting point | IC50 [3] | fold more potent than sunitinib, VEGFR-2 inhibition ([3]; ratio of IC50 to sunitinib) | SMILES | IC50 [1] | fold more potent than sunitinib, MCF-7 [1] | IC50 ([2]; Homo sapiens, HepG2, MTT assay) | phase of cell cycle arrest [4] | IC50 ([2]; MTT assay) |
| --- | --- | --- | --- | --- | --- | --- | --- | --- |
| 203 to 205 °C | – | – | O=C1Nc2ccc(F)cc2C1=Nc1ccc(C(=O)NNC(=S)Nc2ccccc2)cc1 [Compound 17b, 2-(4-((5-Fluoro-2-oxoindolin-3-ylidene)amino)benzoyl)-N-phenylhydrazinecarbothioamide] | 25.8 ± 1.3 µM | – | 9.81 ± 0.48 µM | – | – |
| 220 to 222 °C | – | – | O=C1Nc2ccccc2C1=Nc1ccc(C(=O)NN=Cc2ccc([N+](=O)[O-])cc2)cc1 [Compound 10a, N′-(4-Nitrobenzylidene)-4-((2-oxoindolin-3-ylidene)amino)benzohydrazide] | 40 ± 2 µM | – | 8.24 ± 0.4 µM | – | – |
| 234 to 236 °C | – | – | Cc1ccc(C=NNC(=O)c2ccc(N=C3C(=O)Nc4ccccc43)cc2)cc1 [Compound 10d, N′-(4-Methylbenzylidene)-4-((2-oxoindolin-3-ylidene)amino)benzohydrazide] | 13.7 ± 0.4 µM | – | 21.4 ± 1.05 µM | – | – |
| 231 to 233 °C | – | – | O=C1Nc2ccc(F)cc2C1=Nc1ccc(-c2n[nH]c(=S)o2)cc1 [Compound 15b, 5-Fluoro-3-((4-(5-thioxo-4,5-dihydro-1,3,4-oxadiazol-2-yl)phenyl)imino)indolin-2-one] | 19.6 ± 1.8 µM | – | 12.7 ± 0.62 µM | – | – |
| 202 to 204 °C | – | – | CN(C)c1ccc(C=NNC(=O)c2ccc(N=C3C(=O)Nc4ccc(F)cc43)cc2)cc1 [Compound 10f, N′-(4-(Dimethylamino)benzylidene)-4-((5-fluoro-2-oxoindolin-3-ylidene)amino)benzohydrazide] | 11 ± 0.59 µM | – | 19.2 ± 0.94 µM | – | – |
| 206 to 208 °C | – | – | CCOC(=O)CC(C)=NNC(=O)c1ccc(N=C2C(=O)Nc3ccccc32)cc1 [Compound 14a, Ethyl 3-(2-(4-((2-oxoindolin-3-ylidene)amino)benzoyl)hydrazono)butanoate] | 7.37 ± 0.4 µM | – | 10.3 ± 0.81 µM | – | – |
| 239 to 240 °C | 0.358 ± 0.019 µM | – | COc1ccc(C=NNC(=O)c2ccc(N=C3C(=O)Nc4ccccc43)cc2)cc1 [Compound 10e, N′-(4-Methoxybenzylidene)-4-((2-oxoindolin-3-ylidene)amino)benzohydrazide] | 4.62 ± 0.2 µM | – | 8.81 ± 0.43 µM | – | – |
| 225 to 227 °C | – | – | O=C1Nc2ccc(F)cc2C1=Nc1ccc(C(=O)NN2C(=O)c3ccccc3C2=O)cc1 [Compound 12b, N-(1,3-Dioxoisoindolin-2-yl)-4-((5-fluoro-2-oxoindolin-3-ylidene)amino)benzamide] | 33.8 ± 1.7 µM | – | 23.5 ± 1.15 µM | – | – |
| 187 to 189 °C | – | – | O=C1Nc2ccccc2C1=Nc1ccc(C(=O)NN2C(=O)c3ccccc3C2=O)cc1 [Compound 12a, N-(1,3-Dioxoisoindolin-2-yl)-4-((2-oxoindolin-3-ylidene)amino)benzamide] | 78.4 ± 3.81 µM | – | 130 ± 6.37 µM | – | – |
| 200 to 201 °C | – | – | O=C1Nc2ccccc2C1=Nc1ccc(C(=O)NN=Cc2cccc([N+](=O)[O-])c2)cc1 [Compound 10c, N′-(3-Nitrobenzylidene)-4-((2-oxoindolin-3-ylidene)amino)benzohydrazide] | 14.6 ± 0.71 µM | – | 21 ± 1.02 µM | – | – |
| 213 to 215 °C | – | – | CCOC(=O)CC(C)=NNC(=O)c1ccc(N=C2C(=O)Nc3ccc(F)cc32)cc1 [Compound 14b, Ethyl 3-(2-(4-((5-Fluoro-2-oxoindolin-3-ylidene)amino)benzoyl)hydrazono)butanoate] | 32.9 ± 1.61 µM | – | 13.8 ± 0.67 µM | – | – |
| 237 to 239 °C | – | – | O=C1Nc2ccccc2C1=Nc1ccc(C(=O)NN=Cc2ccc(Cl)cc2)cc1 [Compound 10b, N′-(4-Chlorobenzylidene)-4-((2-oxoindolin-3-ylidene)amino)benzohydrazide] | 23.8 ± 1.21 µM | – | 33.8 ± 1.65 µM | – | – |
| 219 to 220 °C | 0.18 ± 0.009 µM | – | O=C1Nc2ccccc2C1=Nc1ccc(-c2n[nH]c(=S)o2)cc1 [Compound 15a, 3-((4-(5-Thioxo-4,5-dihydro-1,3,4-oxadiazol-2-yl)phenyl)imino)indolin-2-one] | 2.77 ± 0.1 µM | – | 2.3 ± 0.18 µM | – | 2.3 ± 0.18 µM |
| 227 to 229 °C | 0.087 ± 0.004 µM | 1.6 fold | O=C1Nc2ccc(F)cc2C1=Nc1ccc(C(=O)NN=Cc2ccc(Br)cc2)cc1 [Compound 10g, N′-(4-Bromobenzylidene)-4-((5-fluoro-2-oxoindolin-3-ylidene)amino)benzohydrazide] | 0.74 ± 0.03 µM | 6 fold | 2.79 ± 0.14 µM | – | – |

Continued, compound first:

| SMILES | melting point | IC50 [3] | fold more potent than sunitinib, VEGFR-2 inhibition ([3]; ratio of IC50 to sunitinib) | IC50 [1] | fold more potent than sunitinib, MCF-7 [1] | IC50 ([2]; Homo sapiens, HepG2, MTT assay) | phase of cell cycle arrest [4] | IC50 ([2]; MTT assay) |
| --- | --- | --- | --- | --- | --- | --- | --- | --- |
| CNC(=S)NNC(=O)c1ccc(N=C2C(=O)Nc3ccc(F)cc32)cc1 [Compound 5b, 2-(4-((5-Fluoro-2-oxoindolin-3-ylidene)amino)benzoyl)-N-methylhydrazinecarbothioamide] | 252 to 254 °C | 0.16 ± 0.008 µM | – | 0.99 ± 0.04 µM | 5 fold | 2.62 ± 0.13 µM | – | – |
| CNC(=S)NNC(=O)c1ccc(N=C2C(=O)Nc3ccccc32)cc1 [Compound 5a, N-Methyl-2-(4-((2-oxoindolin-3-ylidene)amino)benzoyl)hydrazinecarbothioamide] | 249 to 251 °C | – | – | 6.42 ± 0.55 µM | – | 5.48 ± 0.27 µM | – | – |
| CNC(=O)c1cc(Oc2ccc(NC(=O)Nc3ccc(Cl)c(C(F)(F)F)c3)cc2)ccn1 [Sorafenib] | – | – | – | – | – | – | S phase and G2/M phase | – |
| CCN(CC)CCNC(=O)c1c(C)[nH]c(/C=C2\C(=O)Nc3ccc(F)cc32)c1C [Sunitinib, reference compound] | – | – | – | 4.77 ± 0.29 µM | – | 2.23 ± 0.11 µM | – | – |
| CCOC(=O)c1ccc(/N=C2\C(=O)Nc3ccccc32)cc1 [Compound 7a] | – | – | – | 14.9 ± 0.7 µM | – | 10.9 ± 0.53 µM | – | – |
| O=C1Nc2ccccc2/C1=N/c1ccc(C(=O)O)cc1 [Compound 3a] | – | – | – | 51.6 ± 2.5 µM | – | 62.4 ± 2.61 µM | – | – |
| NNC(=O)c1ccc(/N=C2\C(=O)Nc3ccc(F)cc32)cc1 [Compound 8b] | – | – | – | 40.7 ± 2.8 µM | – | 53.9 ± 2.63 µM | – | – |
| O=C1Nc2ccc(F)cc2/C1=N/c1ccc(C(=O)O)cc1 [Compound 3b] | – | – | – | 43.9 ± 2.1 µM | – | 51.2 ± 2.5 µM | – | – |
| NNC(=O)c1ccc(/N=C2\C(=O)Nc3ccccc32)cc1 [Compound 8a] | – | – | – | 27.2 ± 1.3 µM | – | 24.9 ± 1.21 µM | – | – |
| CCOC(=O)c1ccc(/N=C2\C(=O)Nc3ccc(F)cc32)cc1 [Compound 7b] | – | – | – | 3.81 ± 0.2 µM | – | 2.23 ± 0.11 µM | – | – |

— paper PMC9698773, “Design, Synthesis, Molecular Modeling, and Anticancer Evaluation of New VEGFR-2 Inhibitors Based on the Indolin-2-One Scaffold” (Pharmaceuticals, 2022)
